In publication PMC12377202, “Design, synthesis, and cytotoxic evaluation of quinazoline-based derivatives as VEGER-2 inhibitors: comparative study against EGFR kinase activity, induction of apoptosis, and molecular docking study” (RSC Advances, 2025):

Key:
Type in all cases: cell-based, human
HepG-2 = experiment: MTT anti-proliferative assay, HepG-2; details: Homo sapiens, HepG2; for viability at 0.195 µg/mL / cytotoxicity at 0.195 µg/mL: HepG-2, 0.195 ug/ml; for cytotoxicity at 0.195 µg/mL / cytotoxicity at 0.391 µg/mL / cytotoxicity at 0.781 µg/mL / cytotoxicity at 1.563 µg/mL / cytotoxicity at 3.125 µg/mL / cytotoxicity at 6.25 µg/mL / cytotoxicity at 12.5 µg/mL / cytotoxicity at 25 µg/mL: read-out: Toxicity %; for viability at 0.391 µg/mL / cytotoxicity at 0.391 µg/mL: HepG-2, 0.391 ug/ml; for viability at 0.781 µg/mL / cytotoxicity at 0.781 µg/mL: HepG-2, 0.781 ug/ml; for viability at 1.563 µg/mL / cytotoxicity at 1.563 µg/mL: HepG-2, 1.563 ug/ml; for viability at 3.125 µg/mL / cytotoxicity at 3.125 µg/mL: HepG-2, 3.125 ug/ml; for viability at 6.25 µg/mL / cytotoxicity at 6.25 µg/mL: HepG-2, 6.25 ug/ml; for viability at 12.5 µg/mL / cytotoxicity at 12.5 µg/mL: HepG-2, 12.5 ug/ml; for viability at 25 µg/mL / cytotoxicity at 25 µg/mL: HepG-2, 25 ug/ml; for IC50: MTT, HepG-2, read-out: Cytotoxicity against cancer cells IC50 HepG-2
K-562 = experiment: MTT anti-proliferative assay, K-562; details: Homo sapiens, K562; for viability at 0.195 µmol / cytotoxicity at 0.195 µmol: K-562, 0.195 umol; for cytotoxicity at 0.195 µmol / cytotoxicity at 0.391 µmol / cytotoxicity at 0.781 µmol / cytotoxicity at 1.563 µmol / cytotoxicity at 3.125 µmol / cytotoxicity at 6.25 µmol / cytotoxicity at 12.5 µmol / cytotoxicity at 25 µmol: read-out: Toxicity %; for viability at 0.391 µmol / cytotoxicity at 0.391 µmol: K-562, 0.391 umol; for viability at 0.781 µmol / cytotoxicity at 0.781 µmol: K-562, 0.781 umol; for viability at 1.563 µmol / cytotoxicity at 1.563 µmol: K-562, 1.563 umol; for viability at 3.125 µmol / cytotoxicity at 3.125 µmol: K-562, 3.125 umol; for viability at 6.25 µmol / cytotoxicity at 6.25 µmol: K-562, 6.25 umol; for viability at 12.5 µmol / cytotoxicity at 12.5 µmol: K-562, 12.5 umol; for viability at 25 µmol / cytotoxicity at 25 µmol: K-562, 25 umol; for IC50: MTT, K-562, read-out: Cytotoxicity against cancer cells IC50 K-562
caspase-9 = experiment: Caspase-9 expression level in HepG-2 cells; details: for Caspase-9 ± SE: HepG-2, at IC50 concentrations, control 11.01; for caspase-9 expression level, fold increase: HepG-2, vs control cells
Method: (§1) All synthesized compounds were tested at their cytotoxic concentrations in HepG-2 cells for analysis of gene expression levels of apoptotic markers caspase-3, caspase-9, TNF-α, and IL-6 proteins, and only two active compounds were tested for BAX and Bcl-2 proteins.
(§2) through Flow cytometric analysis.
(§3) Pellets were collected again and incubated with
(§4) Total RNA from vehicle-treated
(§5) (Thermo Scientific, USA).
(§6) All experiments were performed in […]

IL-6R = IL-6R level in HepG-2 cells; details: for IL-6R ± SE: HepG-2, at IC50 concentrations; for IL-6R ± SE / IL-6 ±SE: control 44.10; for IL-6 ±SE: raw data, HepG2
Method: as §1, §2, §3, §4, §5, §6

caspase-3 = experiment: Caspase-3 expression level in HepG-2 cells; details: for Caspase-3 ± SE: HepG-2, at IC50 concentrations, control 0.460; for caspase-3 expression level, fold increase: HepG-2, vs control cells
Method: as §1, §2, §3, §4, §5, §6

MCF-7 = experiment: MTT anti-proliferative assay, MCF-7; details: Homo sapiens, MCF7; for viability at 0.195 µmol / cytotoxicity at 0.195 µmol: MCF-7, 0.195 umol; for cytotoxicity at 0.195 µmol / cytotoxicity at 0.391 µmol / cytotoxicity at 0.781 µmol / cytotoxicity at 1.563 µmol / cytotoxicity at 3.125 µmol / cytotoxicity at 6.25 µmol / cytotoxicity at 12.5 µmol / cytotoxicity at 25 µmol: read-out: Toxicity %; for viability at 0.391 µmol / cytotoxicity at 0.391 µmol: MCF-7, 0.391 umol; for viability at 0.781 µmol / cytotoxicity at 0.781 µmol: MCF-7, 0.781 umol; for viability at 1.563 µmol / cytotoxicity at 1.563 µmol: MCF-7, 1.563 umol; for viability at 3.125 µmol / cytotoxicity at 3.125 µmol: MCF-7, 3.125 umol; for viability at 6.25 µmol / cytotoxicity at 6.25 µmol: MCF-7, 6.25 umol; for viability at 12.5 µmol / cytotoxicity at 12.5 µmol: MCF-7, 12.5 umol; for viability at 25 µmol / cytotoxicity at 25 µmol: MCF-7, 25 umol; for IC50: MTT, MCF-7, read-out: Cytotoxicity against cancer cells IC50 MCF-7
TNF-alpha = TNF-alpha level in HepG-2 cells; details: control 43.48
Method: as §1, §2, §3, §4, §5, §6

O=C(Cn1cnc2cc([N+](=O)[O-])ccc2c1=O)Nc1ccc(F)c(Cl)c1 [9e, N-(3-Chloro-4-fluorophenyl)-2-(7-nitro-4-oxoquinazolin-3(4H)-yl)acetamide]
viability at 0.195 µg/mL (HepG-2): 87.5%
cytotoxicity at 0.195 µg/mL (HepG-2): 12.5%
viability at 0.391 µg/mL (HepG-2): 63.9%
cytotoxicity at 0.391 µg/mL (HepG-2): 36.1%
viability at 0.781 µg/mL (HepG-2): 55.2%
cytotoxicity at 0.781 µg/mL (HepG-2): 44.8%
viability at 1.563 µg/mL (HepG-2): 49.6%
cytotoxicity at 1.563 µg/mL (HepG-2): 50.4%
viability at 3.125 µg/mL (HepG-2): 25.9%
cytotoxicity at 3.125 µg/mL (HepG-2): 74.1%
viability at 6.25 µg/mL (HepG-2): 16.3%
cytotoxicity at 6.25 µg/mL (HepG-2): 83.7%
viability at 12.5 µg/mL (HepG-2): 8.39%
cytotoxicity at 12.5 µg/mL (HepG-2): 91.6%
viability at 25 µg/mL (HepG-2): 6.85%
cytotoxicity at 25 µg/mL (HepG-2): 93.2%
IC50 (HepG-2): 1.51 ± 0.002 µM
viability at 0.195 µmol (K-562): 60.6%
cytotoxicity at 0.195 µmol (K-562): 39.4%
viability at 0.391 µmol (K-562): 47%
cytotoxicity at 0.391 µmol (K-562): 53%
viability at 0.781 µmol (K-562): 26.6%
cytotoxicity at 0.781 µmol (K-562): 73.4%
viability at 1.563 µmol (K-562): 19%
cytotoxicity at 1.563 µmol (K-562): 81%
viability at 3.125 µmol (K-562): 13.7%
cytotoxicity at 3.125 µmol (K-562): 86.3%
viability at 6.25 µmol (K-562): 10.8%
cytotoxicity at 6.25 µmol (K-562): 89.2%
viability at 12.5 µmol (K-562): 8.13%
cytotoxicity at 12.5 µmol (K-562): 91.9%
viability at 25 µmol (K-562): 6.53%
cytotoxicity at 25 µmol (K-562): 93.5%
IC50 (K-562): 0.3469 ± 0.0029 µM
Caspase-9 ± SE (caspase-9): 25.20 ± 1.27 ng/L
Caspase-9 ± SE (caspase-9; listed as N4): 25.20 ng/L
caspase-9 expression level, fold increase (caspase-9): 2.29 fold
IL-6R ± SE (IL-6R): 25.25 ± 0.16 ng/L
IL-6 ±SE (IL-6R): 11.93 ng/L
Caspase-3 ± SE (caspase-3): 0.77 ± 0.069 ng/mL
Caspase-3 ± SE (caspase-3; listed as N4): 0.77 ng/mL
caspase-3 expression level, fold increase (caspase-3): 1.6 fold
viability at 0.195 µmol (MCF-7): 54.8%
cytotoxicity at 0.195 µmol (MCF-7): 45.2%
viability at 0.391 µmol (MCF-7): 29.1%
cytotoxicity at 0.391 µmol (MCF-7): 70.9%
viability at 0.781 µmol (MCF-7): 20.9%
cytotoxicity at 0.781 µmol (MCF-7): 79.1%
viability at 1.563 µmol (MCF-7): 13.7%
cytotoxicity at 1.563 µmol (MCF-7): 86.3%
viability at 3.125 µmol (MCF-7): 9.89%
cytotoxicity at 3.125 µmol (MCF-7): 90.1%
viability at 6.25 µmol (MCF-7): 9.23%
cytotoxicity at 6.25 µmol (MCF-7): 90.8%
viability at 12.5 µmol (MCF-7): 8.22%
cytotoxicity at 12.5 µmol (MCF-7): 91.8%
viability at 25 µmol (MCF-7): 6.51%
cytotoxicity at 25 µmol (MCF-7): 93.5%
IC50 (MCF-7): 0.2314 ± 0.0023 µM
TNF-alpha ±SE (TNF-alpha; HepG-2, at IC50 concentrations): 34.27 ± 1.94 ng/L
TNF-alpha ±SE (TNF-alpha; raw data, HepG2): 32.07 ng/L

O=C(Cn1cnc2cc(Cl)ccc2c1=O)Nc1ccc(Cl)cc1 [8c, 2-(7-Chloro-4-oxoquinazolin-3(4H)-yl)-N-(4-chlorophenyl)acetamide]
viability at 0.195 µg/mL (HepG-2): 89.2%
cytotoxicity at 0.195 µg/mL (HepG-2): 10.8%
viability at 0.391 µg/mL (HepG-2): 65.9%
cytotoxicity at 0.391 µg/mL (HepG-2): 34.1%
viability at 0.781 µg/mL (HepG-2): 47.8%
cytotoxicity at 0.781 µg/mL (HepG-2): 52.2%
viability at 1.563 µg/mL (HepG-2): 29.9%
cytotoxicity at 1.563 µg/mL (HepG-2): 70.1%
viability at 3.125 µg/mL (HepG-2): 15.9%
cytotoxicity at 3.125 µg/mL (HepG-2): 84.1%
viability at 6.25 µg/mL (HepG-2): 11%
cytotoxicity at 6.25 µg/mL (HepG-2): 89%
viability at 12.5 µg/mL (HepG-2): 7.66%
cytotoxicity at 12.5 µg/mL (HepG-2): 92.3%
viability at 25 µg/mL (HepG-2): 6.7%
cytotoxicity at 25 µg/mL (HepG-2): 93.3%
IC50 (HepG-2): 0.7344 ± 0.0023 µM
viability at 0.195 µmol (K-562): 80.8%
cytotoxicity at 0.195 µmol (K-562): 19.2%
viability at 0.391 µmol (K-562): 60.1%
cytotoxicity at 0.391 µmol (K-562): 39.9%
viability at 0.781 µmol (K-562): 34.4%
cytotoxicity at 0.781 µmol (K-562): 65.6%
viability at 1.563 µmol (K-562): 19.5%
cytotoxicity at 1.563 µmol (K-562): 80.5%
viability at 3.125 µmol (K-562): 13%
cytotoxicity at 3.125 µmol (K-562): 87%
viability at 6.25 µmol (K-562): 9.89%
cytotoxicity at 6.25 µmol (K-562): 90.1%
viability at 12.5 µmol (K-562): 8.25%
cytotoxicity at 12.5 µmol (K-562): 91.7%
viability at 25 µmol (K-562): 6.53%
cytotoxicity at 25 µmol (K-562): 93.5%
IC50 (K-562): 0.5444 ± 0.0032 µM
Caspase-9 ± SE (caspase-9): 26.98 ± 1.30 ng/L
Caspase-9 ± SE (caspase-9; listed as R1): 26.98 ng/L
caspase-9 expression level, fold increase (caspase-9): 2.5 fold
IL-6R ± SE (IL-6R): 14.73 ± 1.06 ng/L
IL-6R protein level (IL-6R; HepG-2, control 44.10%): 14.73 ng/L
IL-6 ±SE (IL-6R): 16.64 ng/L
Caspase-3 ± SE (caspase-3): 1.25 ± 0.090 ng/mL
Caspase-3 ± SE (caspase-3; listed as R1): 1.25 ng/mL
caspase-3 expression level, fold increase (caspase-3): 2.72 fold
viability at 0.195 µmol (MCF-7): 46.1%
cytotoxicity at 0.195 µmol (MCF-7): 53.9%
viability at 0.391 µmol (MCF-7): 32.9%
cytotoxicity at 0.391 µmol (MCF-7): 67.1%
viability at 0.781 µmol (MCF-7): 20.3%
cytotoxicity at 0.781 µmol (MCF-7): 79.7%
viability at 1.563 µmol (MCF-7): 13.1%
cytotoxicity at 1.563 µmol (MCF-7): 86.9%
viability at 3.125 µmol (MCF-7): 10.2%
cytotoxicity at 3.125 µmol (MCF-7): 89.8%
viability at 6.25 µmol (MCF-7): 8.44%
cytotoxicity at 6.25 µmol (MCF-7): 91.6%
viability at 12.5 µmol (MCF-7): 8.05%
cytotoxicity at 12.5 µmol (MCF-7): 92%
viability at 25 µmol (MCF-7): 6.64%
cytotoxicity at 25 µmol (MCF-7): 93.4%
IC50 (MCF-7): 0.188 ± 0.0026 µM
TNF-alpha ±SE (TNF-alpha; HepG-2, at IC50 concentrations): 9.13 ± 0.37 ng/L
TNF-alpha ±SE (TNF-alpha; raw data, HepG2): 10.2 ng/L
